Activity calls are given as the source filed them.
Tests used:
[1] = biological target: T1, Low molecular weight phosphotyrosine protein phosphatase (Homo sapiens, UniProt P24666); type: functional; details: read-out: IC50_Mean
T1 sequence (P24666 whole entry): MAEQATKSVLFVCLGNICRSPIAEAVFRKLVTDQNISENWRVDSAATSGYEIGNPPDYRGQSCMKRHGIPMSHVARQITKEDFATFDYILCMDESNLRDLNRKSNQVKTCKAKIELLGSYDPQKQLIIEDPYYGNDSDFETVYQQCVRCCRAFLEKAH

[2] = Luminescence Cell-Based Dose Confirmation HTS to Identify Activators of 5'UTR Stem-Loop Driven Alpha-Synuclein mRNA Translation in H4 Neuroglioblastoma Cells. [Related pubchem assays: 1829 (Project Summary), 1814 (Primary HTS)]; type: functional
H4 = test: Luminescence Cell-Based Dose Response HTS to Identify Activators of 5'UTR Stem-Loop Driven Prion Protein mRNA Translation in H4 Neuroglioblastoma Cells. [Related pubchem assays: 1829 (Project Summary), 1814 (Primary HTS)]; type: functional; details: Homo sapiens
[3] = biological target: T1, Low molecular weight phosphotyrosine protein phosphatase; type: functional; details: read-out: IC50_Mean; remark: listed apart in the source
[4] = biological target: T2, DNA repair and recombination protein RAD54-like (Homo sapiens, UniProt Q92698); test: inhibitors of human RAD54 branch migration, confirmation, biochemical, fluorescence, cherry-picked samples, dose series (AID 651657); type: functional
T2 sequence (Q92698 whole entry): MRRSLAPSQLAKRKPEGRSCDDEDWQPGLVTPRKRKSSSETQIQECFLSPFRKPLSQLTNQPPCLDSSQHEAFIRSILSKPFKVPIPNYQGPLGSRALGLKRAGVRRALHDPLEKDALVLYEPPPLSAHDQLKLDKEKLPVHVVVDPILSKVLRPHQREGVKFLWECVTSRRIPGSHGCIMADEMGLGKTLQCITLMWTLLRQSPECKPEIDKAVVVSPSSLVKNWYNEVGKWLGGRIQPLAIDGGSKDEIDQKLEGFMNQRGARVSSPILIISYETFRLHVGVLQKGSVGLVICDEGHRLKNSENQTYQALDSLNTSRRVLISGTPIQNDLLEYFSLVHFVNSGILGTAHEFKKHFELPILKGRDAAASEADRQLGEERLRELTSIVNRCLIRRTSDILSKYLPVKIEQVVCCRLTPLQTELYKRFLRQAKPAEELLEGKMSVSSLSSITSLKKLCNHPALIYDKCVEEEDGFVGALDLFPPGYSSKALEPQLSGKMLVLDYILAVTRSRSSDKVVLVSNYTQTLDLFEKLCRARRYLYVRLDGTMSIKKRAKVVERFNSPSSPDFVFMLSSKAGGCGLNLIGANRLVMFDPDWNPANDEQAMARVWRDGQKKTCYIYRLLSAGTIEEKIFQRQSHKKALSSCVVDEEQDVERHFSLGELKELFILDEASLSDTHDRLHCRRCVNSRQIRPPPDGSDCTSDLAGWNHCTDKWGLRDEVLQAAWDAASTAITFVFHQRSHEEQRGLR

[5] = Luminescence Cell-Based Dose Response HTS to Identify Activators of Luciferase Translation or Activity in H4 […] Cells. [Related pubchem assays: 1829 (Project Summary), 1814 (Primary HTS)]; type: functional
Protein Wnt-3a = Protein Wnt-3a (Mus musculus, UniProt P27467); test: Wnt3a-driven reporter signaling inhibition, dose response, selectivity assay for Gli-SUFU antagonist project, Wnt-LIGHT cells, luminescence (AID 651570); type: functional; details: read-out: IC50_Mean;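 note: Wnt-LIGHT reporter cells stimulated with conditioned medium from Wnt3a-producing cells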
Chain of Protein Wnt-3a (P27467 whole entry): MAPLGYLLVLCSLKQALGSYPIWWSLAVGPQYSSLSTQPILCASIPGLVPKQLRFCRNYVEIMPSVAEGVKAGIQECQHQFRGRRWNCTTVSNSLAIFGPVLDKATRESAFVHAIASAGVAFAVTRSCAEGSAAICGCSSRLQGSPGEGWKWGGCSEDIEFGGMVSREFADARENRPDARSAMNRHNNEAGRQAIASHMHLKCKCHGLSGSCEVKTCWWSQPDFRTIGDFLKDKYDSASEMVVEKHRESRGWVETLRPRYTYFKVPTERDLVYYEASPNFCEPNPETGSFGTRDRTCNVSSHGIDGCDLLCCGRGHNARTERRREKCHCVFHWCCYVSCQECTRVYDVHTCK

[6] = biological target: T3, Sentrin-specific protease 7 (Homo sapiens, UniProt Q9BQF6); test: SENP7 protease inhibitors, SAR follow-up, biochemical, luminescence (AID 504497); type: functional
T3 sequence (Q9BQF6 whole entry): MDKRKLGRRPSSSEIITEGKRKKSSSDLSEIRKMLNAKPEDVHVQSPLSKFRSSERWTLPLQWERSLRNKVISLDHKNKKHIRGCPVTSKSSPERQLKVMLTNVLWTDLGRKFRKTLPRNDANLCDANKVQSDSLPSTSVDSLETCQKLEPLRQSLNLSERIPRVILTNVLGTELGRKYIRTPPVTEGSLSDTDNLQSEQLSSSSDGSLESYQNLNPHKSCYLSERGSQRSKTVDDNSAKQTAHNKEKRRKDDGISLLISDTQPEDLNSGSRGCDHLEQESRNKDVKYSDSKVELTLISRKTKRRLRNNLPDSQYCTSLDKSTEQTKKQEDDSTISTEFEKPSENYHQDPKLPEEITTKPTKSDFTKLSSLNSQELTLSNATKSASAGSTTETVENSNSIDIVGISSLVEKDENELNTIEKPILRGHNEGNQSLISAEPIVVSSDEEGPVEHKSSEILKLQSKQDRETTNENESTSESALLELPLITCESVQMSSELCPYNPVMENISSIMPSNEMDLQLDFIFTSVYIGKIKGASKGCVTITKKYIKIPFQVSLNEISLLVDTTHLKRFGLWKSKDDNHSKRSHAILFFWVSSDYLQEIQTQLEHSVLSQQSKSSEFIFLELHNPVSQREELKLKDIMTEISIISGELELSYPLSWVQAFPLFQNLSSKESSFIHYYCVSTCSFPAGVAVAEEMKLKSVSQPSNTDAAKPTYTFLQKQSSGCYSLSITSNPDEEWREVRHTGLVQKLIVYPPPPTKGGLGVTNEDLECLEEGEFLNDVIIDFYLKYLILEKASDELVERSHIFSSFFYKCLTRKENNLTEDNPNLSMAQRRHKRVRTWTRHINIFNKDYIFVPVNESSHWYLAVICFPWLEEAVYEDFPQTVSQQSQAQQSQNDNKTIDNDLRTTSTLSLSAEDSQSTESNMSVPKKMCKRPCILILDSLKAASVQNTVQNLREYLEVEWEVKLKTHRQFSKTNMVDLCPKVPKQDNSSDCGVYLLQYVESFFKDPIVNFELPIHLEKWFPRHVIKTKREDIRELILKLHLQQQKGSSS

Caspase-3 = biological target: T4, Caspase-3 (Homo sapiens, UniProt P42574); test: SAR Analysis of small molecule inhibitors of Sentrin-specific proteases (SENPs) using a Caspase-3 Selectivity assay. [Related pubchem assays (depositor defined):AID2540, AID2599, AID434973, AID489001]; type: functional
T4 sequence (P42574 whole entry): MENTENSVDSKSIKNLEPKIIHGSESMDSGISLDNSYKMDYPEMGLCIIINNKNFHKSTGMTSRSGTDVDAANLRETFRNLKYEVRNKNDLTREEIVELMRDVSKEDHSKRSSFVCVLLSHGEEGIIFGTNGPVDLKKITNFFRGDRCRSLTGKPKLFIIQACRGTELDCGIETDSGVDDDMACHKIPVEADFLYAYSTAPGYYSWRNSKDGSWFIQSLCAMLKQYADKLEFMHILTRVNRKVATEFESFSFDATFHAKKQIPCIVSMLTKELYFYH

[7] = biological target: T5, Sentrin-specific protease 6 (Homo sapiens, UniProt Q9GZR1); test: SAR Analysis of small molecule inhibitors of Sentrin-specific protease 6 (SENP6) using a Luminescent assay. [Related pubchem assays (depositor defined):AID2582, AID2599]; type: functional
T5 sequence (Q9GZR1 whole entry): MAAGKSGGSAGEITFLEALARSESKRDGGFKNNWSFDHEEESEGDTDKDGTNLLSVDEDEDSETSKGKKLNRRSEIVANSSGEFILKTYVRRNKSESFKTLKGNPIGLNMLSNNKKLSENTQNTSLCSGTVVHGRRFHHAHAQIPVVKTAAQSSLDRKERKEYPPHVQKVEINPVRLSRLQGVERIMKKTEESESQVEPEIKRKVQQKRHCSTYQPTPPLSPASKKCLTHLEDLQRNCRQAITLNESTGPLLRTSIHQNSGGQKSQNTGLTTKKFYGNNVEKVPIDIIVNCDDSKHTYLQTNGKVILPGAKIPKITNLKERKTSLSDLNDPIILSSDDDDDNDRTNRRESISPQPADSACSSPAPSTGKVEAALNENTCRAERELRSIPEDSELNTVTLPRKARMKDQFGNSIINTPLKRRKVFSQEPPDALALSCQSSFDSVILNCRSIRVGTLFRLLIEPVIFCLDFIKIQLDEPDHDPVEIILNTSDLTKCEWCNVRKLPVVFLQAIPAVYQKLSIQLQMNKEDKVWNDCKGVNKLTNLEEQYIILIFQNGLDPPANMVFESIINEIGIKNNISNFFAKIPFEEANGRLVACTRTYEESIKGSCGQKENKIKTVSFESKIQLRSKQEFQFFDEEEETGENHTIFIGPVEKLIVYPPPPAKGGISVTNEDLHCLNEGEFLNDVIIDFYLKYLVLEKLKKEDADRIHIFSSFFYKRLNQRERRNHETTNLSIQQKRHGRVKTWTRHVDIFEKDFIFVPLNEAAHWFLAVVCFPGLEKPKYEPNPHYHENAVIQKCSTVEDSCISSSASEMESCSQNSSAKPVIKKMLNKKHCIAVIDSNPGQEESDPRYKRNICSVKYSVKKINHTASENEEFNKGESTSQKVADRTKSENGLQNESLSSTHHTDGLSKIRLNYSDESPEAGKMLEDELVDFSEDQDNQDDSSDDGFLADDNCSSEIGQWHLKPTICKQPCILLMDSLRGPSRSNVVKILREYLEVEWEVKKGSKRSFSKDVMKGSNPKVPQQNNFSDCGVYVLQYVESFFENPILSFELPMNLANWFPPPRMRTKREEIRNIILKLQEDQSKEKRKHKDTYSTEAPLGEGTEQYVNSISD

[8] = biological target: T6, Sentrin-specific protease 8 (Homo sapiens, UniProt Q96LD8); test: SENP8 protease inhibitors, SAR follow-up, biochemical, luminescence (AID 504501); type: functional
T6 sequence (Q96LD8 whole entry): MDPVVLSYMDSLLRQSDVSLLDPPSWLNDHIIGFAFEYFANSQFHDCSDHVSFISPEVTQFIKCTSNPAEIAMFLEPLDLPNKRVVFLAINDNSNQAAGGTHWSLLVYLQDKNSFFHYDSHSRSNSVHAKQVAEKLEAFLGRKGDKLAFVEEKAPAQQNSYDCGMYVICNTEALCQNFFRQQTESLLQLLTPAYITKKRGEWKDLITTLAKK

[9] = biological target: Adenosylmethionine-8-amino-7-oxononanoate aminotransferase (Mycobacterium tuberculosis, UniProt P9WQ81); test: Mycobacterium tuberculosis BioA enzyme inhibitor Measured in Biochemical System Using Plate Reader - 2163-02_Inhibitor_Dose_CherryPick_Activity.; type: functional, Mycobacterium tuberculosis UT205
Chain of Adenosylmethionine-8-amino-7-oxononanoate aminotransferase (P9WQ81 whole entry, the tested form may be a part): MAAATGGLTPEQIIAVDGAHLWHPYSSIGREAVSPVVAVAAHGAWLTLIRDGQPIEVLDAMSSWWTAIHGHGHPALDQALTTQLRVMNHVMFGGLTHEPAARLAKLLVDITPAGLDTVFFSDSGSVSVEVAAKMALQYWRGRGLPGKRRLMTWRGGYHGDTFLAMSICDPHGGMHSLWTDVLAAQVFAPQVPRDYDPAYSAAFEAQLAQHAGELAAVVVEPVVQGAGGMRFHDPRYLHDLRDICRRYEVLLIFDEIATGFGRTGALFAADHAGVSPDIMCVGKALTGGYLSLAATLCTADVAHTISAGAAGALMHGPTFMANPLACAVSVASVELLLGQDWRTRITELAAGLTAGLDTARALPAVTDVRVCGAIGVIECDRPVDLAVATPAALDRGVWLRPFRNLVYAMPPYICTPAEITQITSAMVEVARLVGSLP

[10] = biological target: Hepatocyte nuclear factor 4-alpha (Homo sapiens, UniProt P41235); type: functional, cell-based;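 note: biochemical luminescence-based dose-response counterscreen measuring inhibition of HNF4 dimerization, run alongside a screen for blockers of ABHD5–perilipin-5 interaction; split luciferase complementation of HNF4 fusion proteins in cell lysate measuring dimerization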
Chain of Hepatocyte nuclear factor 4-alpha (P41235 whole entry, the tested form may be a part): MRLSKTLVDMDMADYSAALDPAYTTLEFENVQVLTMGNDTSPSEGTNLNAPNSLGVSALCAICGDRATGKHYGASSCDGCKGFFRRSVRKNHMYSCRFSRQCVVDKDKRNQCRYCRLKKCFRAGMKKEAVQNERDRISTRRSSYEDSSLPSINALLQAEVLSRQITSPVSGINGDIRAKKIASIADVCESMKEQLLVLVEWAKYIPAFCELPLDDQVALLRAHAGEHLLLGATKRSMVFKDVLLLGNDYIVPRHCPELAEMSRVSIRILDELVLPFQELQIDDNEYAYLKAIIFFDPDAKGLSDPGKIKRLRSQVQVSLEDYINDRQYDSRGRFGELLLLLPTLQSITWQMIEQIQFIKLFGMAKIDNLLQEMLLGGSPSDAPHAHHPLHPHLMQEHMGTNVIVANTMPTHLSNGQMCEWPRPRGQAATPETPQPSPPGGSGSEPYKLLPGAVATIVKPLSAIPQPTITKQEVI

[11] = biological target: Induced myeloid leukemia cell differentiation protein Mcl-1 (Homo sapiens, UniProt Q07820); type: functional
Chain of Induced myeloid leukemia cell differentiation protein Mcl-1 (Q07820 whole entry, the tested form may be a part): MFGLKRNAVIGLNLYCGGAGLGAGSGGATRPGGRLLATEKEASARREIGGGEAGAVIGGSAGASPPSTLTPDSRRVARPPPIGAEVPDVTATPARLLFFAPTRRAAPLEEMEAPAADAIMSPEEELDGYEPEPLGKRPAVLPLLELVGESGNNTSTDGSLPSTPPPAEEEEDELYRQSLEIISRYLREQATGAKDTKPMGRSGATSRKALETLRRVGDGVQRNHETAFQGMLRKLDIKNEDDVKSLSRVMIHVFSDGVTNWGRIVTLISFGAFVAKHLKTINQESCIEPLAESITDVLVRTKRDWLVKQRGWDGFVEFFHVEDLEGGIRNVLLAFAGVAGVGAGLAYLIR

[12] = ARNT/TACC3 interaction disruptors, potency, confirmation, biochemical, AlphaScreen, cherry-picked samples (AID 651703); type: functional, Homo sapiens;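 note: His-tagged ARNT PAS-B domain paired with GST-TACC3 E629A dimer coactivator fragment; potency of inhibitors that break up the complex and lower AlphaScreen signal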
[13] = biological target: Mitochondrial peptide methionine sulfoxide reductase (Bos taurus, UniProt P54149); test: Absorbance-based biochemical high throughput dose response assay for activators of Methionine sulfoxide reductase A (MsrA).; type: functional
Chain of Mitochondrial peptide methionine sulfoxide reductase (P54149 whole entry): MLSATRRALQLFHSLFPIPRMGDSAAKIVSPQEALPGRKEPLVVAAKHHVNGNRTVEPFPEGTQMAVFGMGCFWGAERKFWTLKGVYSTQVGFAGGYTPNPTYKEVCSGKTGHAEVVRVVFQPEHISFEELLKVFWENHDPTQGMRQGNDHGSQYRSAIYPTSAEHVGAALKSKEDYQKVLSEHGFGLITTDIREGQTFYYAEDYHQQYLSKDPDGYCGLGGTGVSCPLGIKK

[14] = biological target: T7, Rac GTPase-activating protein 1 (Homo sapiens, UniProt Q9H0H5); test: MgcRacGAP GTPase-activating activity inhibitors, confirmation, biochemical, ADP Hunter fluorescence, primary and confirmatory (AID 624330); type: functional
T7 sequence (Q9H0H5 whole entry): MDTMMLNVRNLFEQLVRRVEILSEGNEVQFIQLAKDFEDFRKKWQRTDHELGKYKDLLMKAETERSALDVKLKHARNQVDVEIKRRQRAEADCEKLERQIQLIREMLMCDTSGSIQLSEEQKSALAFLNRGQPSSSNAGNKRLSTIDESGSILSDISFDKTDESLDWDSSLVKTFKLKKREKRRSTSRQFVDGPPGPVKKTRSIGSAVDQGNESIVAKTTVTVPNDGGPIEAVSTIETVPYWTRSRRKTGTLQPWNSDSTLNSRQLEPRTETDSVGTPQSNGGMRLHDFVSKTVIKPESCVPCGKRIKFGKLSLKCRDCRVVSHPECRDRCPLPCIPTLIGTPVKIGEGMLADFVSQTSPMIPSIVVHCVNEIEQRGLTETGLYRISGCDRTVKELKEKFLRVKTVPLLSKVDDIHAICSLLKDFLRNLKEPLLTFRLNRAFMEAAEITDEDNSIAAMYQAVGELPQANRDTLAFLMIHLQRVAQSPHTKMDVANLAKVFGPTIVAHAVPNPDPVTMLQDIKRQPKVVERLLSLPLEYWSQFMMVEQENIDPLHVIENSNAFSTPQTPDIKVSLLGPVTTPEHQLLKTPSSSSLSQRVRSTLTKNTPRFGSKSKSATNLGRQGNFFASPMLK

SMILES: Cc1ccc(-c2nc(NCCN3CCOCC3)c3ccccc3n2)cc1
- IC50 [1]: 16 µM (active)
- EC50 [2]: 56.3 µM (active)
- EC50 (H4): 16.9 µM (active)
- IC50 [3]: 30.7 µM (inactive)
- AC50 [4]: 24.8 µM (active)
- EC50 [5]: 21.1 µM (active)

SMILES: CC(=O)c1c(C)[nH]c(C(=O)OCC(=O)Nc2cccc(S(=O)(=O)N3CCCC3)c2)c1C
- IC50 (Protein Wnt-3a): 5.02 µM (active)

SMILES: Cc1cc(C(F)F)nn1CC(=O)Nc1sc2c(c1C#N)CCC2
- IC50 [6]: > 99 µM (inactive)
- IC50 (Caspase-3): > 99 µM (inactive)
- IC50 [7]: > 99 µM (inactive)
- IC50 [8]: > 99 µM (inactive)

SMILES: COc1cccc(NC(=O)CCC2CCN(C(=O)c3ccc(C(C)=O)s3)CC2)c1
- AC50 [9]: 0.508 µM (active)

SMILES: CS(=O)(=O)c1ccc(C(=O)NCCN2C(=O)S/C(=C\c3cccnc3)C2=O)cc1[N+](=O)[O-]
- IC50 [10]: 5.89 µM (active)
- IC50 [11]: 2.17 µM (active)

SMILES: CC(=O)N1CN(Cc2ccccn2)Cc2c1sc1c2CCCC1
- AC50 [12]: 87.9 µM (active)

SMILES: O=C(NCc1ccccn1)c1c(-c2ccccc2)sc2ccccc12
- AC50 [12]: 121 µM (active)

SMILES: CC1(C(=O)Nc2ccccc2)CCN1C(=O)Cc1ccc(-c2ccccc2)cc1 (stereo not given)
- EC50 [13]: > 104 µM (inactive)

SMILES: Cc1nc2ncccn2c1-c1csc(Nc2ccc(O)cc2)n1
- IC50 (Protein Wnt-3a): 48.9 µM (inactive)
- IC50 [14]: 14.3 µM (active)

SMILES: CCCCc1ccc2nc(NC(=O)C3CCCCC3)sc2c1
- IC50 [6]: > 99 µM (inactive)
- IC50 (Caspase-3): > 99 µM (inactive)
- IC50 [7]: > 99 µM (inactive)
- IC50 [8]: > 99 µM (inactive)

SMILES: CC(C)(C)c1cc(C(=O)Nc2cccnc2)cc(C(=O)Nc2cccnc2)c1
- AC50 [9]: 1.28 µM (active)

SMILES: CCCCCNC(=O)C(c1cccc2ccccc12)n1c(=O)c(-c2ccco2)nc2ccccc21 (stereo not given)
- IC50 [10]: 2.83 µM (active)
